Measured values taken from ChEMBL document CHEMBL5029142, “Stapled Wasp Venom-Derived Oncolytic Peptides with Side Chains Induce Rapid Membrane Lysis and Prolonged Immune Responses in Melanoma” (J Med Chem, 2021).
Calls of active or inactive are those of the source. No cut-off for these calls is given here. Starred links: 1 amine or outer side, 2 acyl side, 3 side chain; linkers in the order of their positions; H or OH if unused. Positions of bridges follow the written chain, without caps; N, C: chain ends. Non-standard residues stand in square brackets, D forms with d. Residues, ends and D or L forms follow the SMILES beside them. ξ: configuration not given here. ξαMeNle(6-ylidene) = CC(CCCC=[*:3])(N[*:1])C(=O)[*:2]; X1 = CC(C)C[C@@](CCCC=[*:3])(N[*:1])C(=O)[*:2]; X2 = NCCCC[C@@](CCCC=[*:3])(N[*:1])C(=O)[*:2]; Dip = N[C@H](C(=O)O)C(c1ccccc1)c1ccccc1; S5 = C=CCCC[C@](C)(N)C(=O)O

How the values were obtained:
[1] = Toxicity in B16-F10 tumor bearing C57 mouse assessed as change in body weight at 1 mg, IT administered once daily for 3 consecutive days starting from day 5 post inoculation; details: in vivo, other, 72 h, time 3 day
[2] = tested on: B16-F10; experiment: Antitumor activity against mouse B16-F10 cells implanted in C57 mouse assessed as reduction in tumor growth at 1 mg, IT administered once daily for 3 consecutive days starting from day 5 post inoculation; type: functional, cell-based; details: time 3.0 day
[3] = Toxicity in 4T1 tumor bearing BALB/c mouse assessed as increase in body weight at 1 mg, IT administered once daily for 3 consecutive days starting from day 2 post inoculation; details: in vivo, other, 72 h, time 3 day
[4] = tested on: 4T1; experiment: Antitumor activity against mouse 4T1 cells implanted in BALB/c mouse assessed as necrosis at 1 mg, IT administered once daily for 3 consecutive days starting from day 2 post inoculation and measured on day 7 by hematoxylin-eosin staining based assay; type: functional, cell-based; details: time 7.0 day
[5] = tested on: 4T1; experiment: Antitumor activity against mouse 4T1 cells implanted in BALB/c mouse assessed as inhibition of tumor progression at 1 mg, IT administered once daily for 3 consecutive days starting from day 2 post inoculation; type: functional, cell-based; details: time 3.0 day
[6] = tested on: B16-F10; experiment: (§1) Antitumor activity against mouse B16-F10 cells implanted in C57 mouse assessed as increase in infiltration of CD4 positive T cells into tumors at 1 mg, IT administered once daily for 3 consecutive days starting from day 5 post inoculation and measured after 10 days by histochemical staining based analysis; type: functional, cell-based; details: time 10.0 day
[7] = tested on: 4T1; experiment: as §1, with “mouse 4T1” for “mouse B16-F10”, “of CD8” for “of CD4”, “T lymphocytes in” for “T cells into”, “day 2” for “day 5”, “after 7” for “after 10”; type: functional, cell-based; details: time 7.0 day
[8] = tested on: B16-F10; experiment: Antitumor immunity against mouse B16-F10 cells implanted in anti-CD8 positive antibody stimulated C57 mouse assessed as inhibition of tumor progression at 1 mg, IT administered once daily for 3 consecutive days starting from day 7 and measured after 40 days; type: functional, cell-based; details: time 40.0 day
[9] = tested on: B16-F10; experiment: Antitumor immunity against mouse B16-F10 cells implanted in anti-CD8 positive antibody stimulated C57 mouse assessed as inhibition of tumor progression at 1 mg, IT administered once daily for 3 consecutive days starting from day 7 and measured after 20 days; type: functional, cell-based; details: time 20.0 day
[10] = tested on: B16-F10; experiment: Antiproliferative activity against mouse B16-F10 cells assessed as inhibition of cell growth measured after 24 hrs by Cell Counting Kit-8 assay; type: functional, cell-based; details: B16-F10, 24 h
[11] = tested on: B16-F10; experiment: as §1, with “CD8” for “CD4”; type: functional, cell-based; details: time 10.0 day
[12] = tested on: 4T1; experiment: as §1, with “mouse 4T1” for “mouse B16-F10”, “T lymphocytes in” for “T cells into”, “day 2” for “day 5”, “after 7” for “after 10”; type: functional, cell-based; details: time 7.0 day
[13] = tested on: B16-F10; experiment: Antitumor activity against mouse B16-F10 cells implanted in C57 mouse assessed as induction of cell necrosis by measuring reduction in live cells at 1 mg, IT administered once daily for 3 consecutive days starting from day 5 post inoculation and measured after 10 to 14 days by hematoxylin-eosin staining based assay; type: functional; details: time 10-14 day
[14] = tested on: 4T1; experiment: Antiproliferative activity against triple-negative mouse 4T1 cells assessed as inhibition of cell growth measured after 24 hrs by Cell Counting Kit-8 assay; type: functional, cell-based; details: 4T1, 24 h
[15] = tested on: 4T1; experiment: Cytotoxicity against mouse 4T1 cells assessed as permeabilization in to cell membrane at 10 uM measured up to 3 hrs by calcein-AM and PI dual staining based live/dead cell viability assay; type: functional; details: time hrs <=3, TDE = time-dependent effect
[16] = tested on: 4T1; experiment: Antitumor activity against mouse 4T1 cells implanted in BALB/c mouse assessed as necrosis at 1 mg, IT administered once daily for 3 consecutive days starting from day 2 post inoculation and measured on day 18 by hematoxylin-eosin staining based assay; type: functional, cell-based; details: time 18.0 day
[17] = Hemolytic activity in mouse RBC assessed as hemoglobin release at 80 uM incubated for 1 hr by absorbance based method relative to control; type: ADME, tissue-based, Erythrocyte; details: mouse red blood cells, read-out: Activity
[18] = Hemolytic activity in mouse RBC assessed as hemoglobin release at 20 to 80 uM incubated for 1 hr by absorbance based method; type: tissue-based; details: erythrocyte, dose 20-80 µM
[19] = Stability of the compound assessed as alpha chymotrypsin (unknown origin)-mediated proteolysis by measuring degradation half life at 1 mM measured up to 12 hrs by HPLC analysis; type: ADME; details: human, alpha-chymotrypsin
[20] = tested on: 4T1; experiment: Cytotoxicity against mouse 4T1 cells assessed as disruption of cells by measuring increase in red fluorescence at 10 uM measured up to 3 hrs by calcein-AM and PI dual staining based live/dead cell viability assay; type: functional; details: time hrs <=3
[21] = tested on: 4T1; experiment: Cytotoxicity against mouse 4T1 cells assessed as loss of membrane integrity by measuring increase in LDH release incubated for 24 hrs by LDH release assay; type: functional, cell-based
[22] = tested on: 4T1; experiment: Cytotoxicity against mouse 4T1 cells assessed as increase in extracellular ATP level at 50 uM measured up to 60 mins by luminometric method; type: functional, cell-based; details: time min <=60

CC[C@H](C)[C@@H]1NC(=O)[C@H](CCCNC(=N)N)NC(=O)[C@H](CCCCN)NC(=O)[C@@](CC(C)C)(NC(=O)[C@H](CC(C)C)NC(=O)CN)CCC/C=C\CCC[C@@](CCCCN)(C(=O)N[C@H](C(=O)N[C@@H](CC(C)C)C(=O)N[C@@H](CC(C)C)C(N)=O)[C@@H](C)O)NC1=O (H-GL[X1]KRI[X2]TLL-NH2; staple (Z) 3-7)
Activity [1]: Non-Toxic
Activity [2]: Active
Activity [3]: Non-Toxic
Activity [4]: Active
Activity [5]: inactive
Activity [6]: Active
Activity [7]: inactive
Activity [8]: inactive
Activity [9]: inactive
IC50 [10]: 30.4 µM
Activity [11]: Active
Activity [12]: inactive
Activity [13]: Active
IC50 [14]: 6.57 µM
Activity [15]: Tde
Activity [16]: inactive
hemolysis at 1 h, 80 µM [17]: < 10%

CC[C@H](C)[C@H](NC(=O)[C@]1(C)CCC/C=C\CCCC(C)(N)C(=O)N[C@@H](CC(C)C)C(=O)N[C@@H](CC(C)C)C(=O)N[C@@H](CCCCN)C(=O)N1)C(=O)N[C@@H](CCCCN)C(=O)N[C@H](C(=O)N[C@@H](CC(C)C)C(=O)N[C@@H](CC(C)C)C(N)=O)[C@@H](C)O (some centres not stated) (H-[ξαMeNle(6-ylidene)]LLK[S5]IKTLL-NH2; staple (Z) 1-5)
IC50 [10]: 15.1 µM
Activity [18]: Toxic
IC50 [14]: 5.15 µM

CC[C@H](C)[C@H](NC(=O)[C@H](CCCNC(=N)N)NC(=O)[C@H](CCCCN)NC(=O)[C@H](CC(C)C)NC(=O)[C@H](CC(C)C)NC(=O)CN)C(=O)N[C@@H](CCCCN)C(=O)N[C@H](C(=O)N[C@@H](CC(C)C)C(=O)N[C@@H](CC(C)C)C(N)=O)[C@@H](C)O [ANOPLIN] (H-GLLKRIKTLL-NH2)
Activity [1]: Non-Toxic
Activity [2]: inactive
half-life at 1000 µM [19]: 12 min
Activity [3]: Non-Toxic
Activity [6]: Active
Activity [7]: inactive
IC50 [10]: > 400 µM
Activity [11]: Active
Activity [12]: inactive
IC50 [14]: 191 µM
Activity [20]: inactive
Activity [21]: Dose-Dependent Effect

NCCCC[C@H](NC(=O)[C@@H](NC(=O)[C@H](Cc1c[nH]c2ccccc12)NC(=O)[C@H](CCCCN)NC(=O)[C@H](CCCCN)NC(=O)[C@H](Cc1c[nH]c2ccccc12)NC(=O)[C@H](Cc1c[nH]c2ccccc12)NC(=O)[C@H](CCCCN)NC(=O)[C@@H](N)CCCCN)C(c1ccccc1)c1ccccc1)C(N)=O [RUXOTEMITIDE] (H-KKWWKKW[Dip]K-NH2)
Activity [1]: Non-Toxic
Activity [2]: Active
half-life at 1000 µM [19]: 34 min
Activity [3]: Non-Toxic
Activity [4]: Active
Activity [5]: inactive
Activity [6]: Active
Activity [7]: inactive
Activity [11]: Active
Activity [12]: inactive
Activity [13]: Active
Activity [22]: Active
Activity [20]: Active
Activity [16]: inactive
Activity [21]: Dose-Dependent Effect
